From the supplement of paper PMC13380429

What was measured:
Caco-2 [1] = experiment: relative viability EC50 (midpoint between 100% and the lowest measured viability); higher = less toxic; conditions: 72 h
Calu-3 [2] = experiment: cell viability relative to DMSO; higher = less toxic; conditions: 72 h
Caco-2 [3] = experiment: as above; conditions: 72 h
U2OS [4] = experiment: as above; conditions: 72 h
HepG2 [5] = experiment: as above; conditions: 72 h
Vero E6 [6] = experiment: as above; conditions: 72 h
[7] = tested on: A549-ACE2 infected with SARS-CoV-2; experiment: cell count relative to DMSO; higher = less toxic; conditions: 24 h
[8] = tested on: A549-ACE2 infected with SARS-CoV-2; experiment: SARS-CoV-2 infection rate relative to DMSO; higher = more infection; conditions: 24 h
[9] = tested on: A549-ACE2 infected with SARS-CoV-2; experiment: morphology score (similarity to uninfected cells); higher = more like uninfected cells; conditions: 24 h
A549-ACE2 [10] = experiment: drug-induced phospholipidosis relative to tamoxifen; higher = more phospholipidosis
A549-ACE2 [11] = experiment: phospholipidosis EC50; higher = less potent phospholipidosis inducer
Calu-3 [12] = experiment: drug sensitivity score (DSS) for viability; higher = more toxic; extreme values may be limits of the assay; conditions: 72 h
Caco-2 [13] = experiment: as above; conditions: 72 h
U2OS [14] = experiment: as above; conditions: 72 h
HepG2 [15] = experiment: as above; conditions: 72 h
Vero E6 [16] = experiment: as above; conditions: 72 h
Calu-3 [17] = experiment: relative viability EC50 (midpoint between 100% and the lowest measured viability); higher = less toxic; conditions: 72 h
U2OS [18] = experiment: as above; conditions: 72 h
Vero E6 [19] = experiment: as above; conditions: 72 h
HepG2 [20] = experiment: as above; conditions: 72 h

Cc1nc(Nc2cnn(C3CCNCC3)c2)nc2c1N(C)C(=O)c1cc3ccccc3cc1N2C [HTH-01-015]
Conditions | drug sensitivity score | relative viability EC50 [µM]
Caco-2 [1] | – | > 10
Caco-2 [13] | 0.6 | –
Calu-3 [12] | 1.6 | –
HepG2 [15] | 1 | –
U2OS [14] | 2 | –
Vero E6 [16] | 1.2 | –

Conditions | SARS-CoV-2 infection rate [%] | cell count [%] | cell viability [%] | morphology score | phospholipidosis EC50 [µM]
A549-ACE2 [11], 24 h | – | – | – | – | 3.28
A549-ACE2 [11], 48 h | – | – | – | – | 3.72
Caco-2 [3], 1 nM | – | – | 94.7 | – | –
Caco-2 [3], 10 nM | – | – | 99.7 | – | –
Caco-2 [3], 100 nM | – | – | 97.7 | – | –
Caco-2 [3], 1000 nM | – | – | 103 | – | –
Caco-2 [3], 10000 nM | – | – | 77.7 | – | –
Calu-3 [2], 1 nM | – | – | 97.1 | – | –
Calu-3 [2], 10 nM | – | – | 108 | – | –
Calu-3 [2], 100 nM | – | – | 99.1 | – | –
Calu-3 [2], 1000 nM | – | – | 108 | – | –
Calu-3 [2], 10000 nM | – | – | 59.4 | – | –
HepG2 [5], 1 nM | – | – | 106 | – | –
HepG2 [5], 10 nM | – | – | 89.3 | – | –
HepG2 [5], 100 nM | – | – | 101 | – | –
HepG2 [5], 1000 nM | – | – | 109 | – | –
HepG2 [5], 10000 nM | – | – | 67.7 | – | –
U2OS [4], 1 nM | – | – | 101 | – | –
U2OS [4], 10 nM | – | – | 108 | – | –
U2OS [4], 100 nM | – | – | 100 | – | –
U2OS [4], 1000 nM | – | – | 107 | – | –
U2OS [4], 10000 nM | – | – | 53.1 | – | –
Vero E6 [6], 1 nM | – | – | 106 | – | –
Vero E6 [6], 10 nM | – | – | 106 | – | –
Vero E6 [6], 100 nM | – | – | 104 | – | –
Vero E6 [6], 1000 nM | – | – | 98.5 | – | –
Vero E6 [6], 10000 nM | – | – | 74.1 | – | –
[7], 0.1 µM | – | 97 | – | – | –
[7], 0.3 µM | – | 102 | – | – | –
[7], 1 µM | – | 103 | – | – | –
[7], 3 µM | – | 99 | – | – | –
[8], 0.1 µM | 105 | – | – | – | –
[8], 0.3 µM | 105 | – | – | – | –
[8], 1 µM | 100 | – | – | – | –
[8], 3 µM | 77 | – | – | – | –
[9], 0.1 µM | – | – | – | -0.27 | –
[9], 0.3 µM | – | – | – | 0.2 | –
[9], 1 µM | – | – | – | 0.05 | –
[9], 3 µM | – | – | – | 0.67 | –

drug-induced phospholipidosis [%], A549-ACE2 [10]
Conditions | 0.3 µM | 0.833333 µM | 3.33333 µM | 6.66667 µM | 10 µM | 30 µM
24 h | 2.9 | 6.1 | 51.1 | 120 | 118 | 24.5
48 h | 6.71 | 6.12 | 41.5 | 172 | 169 | –
72 h | 6.1 | 4.78 | 42.6 | – | – | –

Cc1ccc(CNc2ncnc3ccc(-c4ccc(CO)o4)cc23)o1 [ML167]
Conditions | drug sensitivity score | relative viability EC50 [µM]
Caco-2 [1] | – | > 10
Caco-2 [13] | 1.2 | –
Calu-3 [12] | 1.2 | –
Calu-3 [17] | – | > 10
HepG2 [15] | 2.3 | –
U2OS [14] | 0 | –
U2OS [18] | – | > 10
Vero E6 [16] | 0 | –
Vero E6 [19] | – | > 10

Conditions | SARS-CoV-2 infection rate, [8] [%] | cell count, [7] [%] | cell viability, Caco-2 [3] [%] | cell viability, Calu-3 [2] [%] | cell viability, HepG2 [5] [%] | cell viability, U2OS [4] [%] | cell viability, Vero E6 [6] [%] | morphology score, [9]
1 nM | – | – | 106 | 102 | 94.8 | 102 | 104 | –
10 nM | – | – | 97.3 | 91.5 | 102 | 99.7 | 105 | –
100 nM | – | – | 110 | 98.1 | 99.2 | 106 | 95 | –
0.3 µM | 98 | 99 | – | – | – | – | – | 0.14
1000 nM | – | – | 84.8 | 85 | 93.5 | 97.7 | 96.5 | –
3 µM | 92 | 111 | – | – | – | – | – | 0.35
10000 nM | – | – | 93.6 | 83 | 70.5 | 99.9 | 89.1 | –
10 µM | 89 | 103 | – | – | – | – | – | 0.47
30 µM | 72 | 99 | – | – | – | – | – | 0.52

drug-induced phospholipidosis [%], A549-ACE2 [10]
Conditions | 0.3 µM | 0.833333 µM | 3.33333 µM | 6.66667 µM | 10 µM | 30 µM
24 h | 2.53 | 0.81 | -3.37 | 5.92 | 6.99 | 19.4
48 h | 1.66 | -0.31 | -4.24 | 1.31 | 3.46 | 12.6
72 h | 1.51 | -4.06 | -1.11 | -0.124 | 2.4 | 14.2

Oc1cc(CNC(=S)/C=C/c2cc(O)c(O)c(Br)c2)cc(O)c1O [NT157]
Conditions | drug sensitivity score | relative viability EC50 [µM]
Caco-2 [1] | – | 2.1
Caco-2 [13] | 5.8 | –
Calu-3 [12] | 3.9 | –
Calu-3 [17] | – | 3.38
HepG2 [15] | 7.4 | –
HepG2 [20] | – | 1.35
U2OS [14] | 8.8 | –
U2OS [18] | – | 1.07
Vero E6 [16] | 5.2 | –
Vero E6 [19] | – | 2.08

Conditions | SARS-CoV-2 infection rate, [8] [%] | cell count, [7] [%] | cell viability, Caco-2 [3] [%] | cell viability, Calu-3 [2] [%] | cell viability, HepG2 [5] [%] | cell viability, U2OS [4] [%] | cell viability, Vero E6 [6] [%] | morphology score, [9]
1 nM | – | – | 78.4 | 104 | 101 | 102 | 89.7 | –
10 nM | – | – | 102 | 101 | 101 | 98.2 | 102 | –
100 nM | – | – | 99.4 | 109 | 95.6 | 99.8 | 92.8 | –
0.1 µM | 104 | 104 | – | – | – | – | – | 0.06
0.3 µM | 103 | 107 | – | – | – | – | – | 0.02
1000 nM | – | – | 90.2 | 103 | 74.1 | 64.9 | 91 | –
1 µM | 105 | 106 | – | – | – | – | – | -0.23
3 µM | 101 | 93 | – | – | – | – | – | -0.08
10000 nM | – | – | 25.7 | 25.6 | 25.4 | 23.5 | 32.9 | –

drug-induced phospholipidosis [%], A549-ACE2 [10]
Conditions | 0.3 µM | 0.833333 µM | 3.33333 µM | 6.66667 µM | 10 µM
24 h | 2.74 | -0.68 | -0.71 | 22 | 29.2
48 h | 2.03 | -0.74 | -5.67 | – | –
72 h | 3.76 | -0.841 | – | – | –
